Experiments:
Format in all cases: in vivo
[1] = test system: sweet corn variety WH0809; experiment: Visual injury of sweet corn after POST herbicide inhibitors of photosynthesis (Example 2)
Procedure: (§1) A field study was conducted at Greenback, TN to investigate POST applications of several herbicide inhibitors of photosynthesis for sweet corn safety and for changes in carbohydrate content in the kernels of sweet corn among treatments. Treatments included bentazon at 1120 and 2240 g ai/ha, linuron at 280 and 560 g ai/ha, metribuzin at 105 and 210 g ai/ha, and bromoxynil at 560 and 1120 g ai/ha. All treatments included a PRE application of a common residual corn herbicide in order to maintain weed free conditions. […] Sweet corn was harvested from the center two rows of each four row plot and weighed in the husk. Eight ears of corn were harvested from each plot and were pooled over replicates for analysis of key carbohydrates which included the sugars sucrose, fructose, glucose, maltose, and raffanose.

[2] = test system: sweet corn variety WH0809; experiment: Sweet corn yield, harvested and weighed in the husk (Example 2); conditions: treated check 9758.4
Procedure: as §1

[3] = test system: sweet corn variety WH0809; experiment: Sugar content of sweet corn kernels (Example 2); conditions: for Sugar content Raffanose: treated check 0.51; for Sugar content Maltose: treated check 0.61; for Sugar content Fructose: treated check 1.04; for Sugar content Glucose: treated check 1.91; for Sugar content Sucrose: treated check 10.72
Procedure: as §1

With `CON(C)C(=O)Nc1ccc(Cl)c(Cl)c1` [LINURON, linuron] the Injury ([1]; 280 g ai/ha + COC 1% v/v POST, 1st of 3 Injury columns, rating date not given) was 25%, the Injury ([1]; 280 g ai/ha + COC 1% v/v POST, 2nd of 3 Injury columns (agrees with 14 DAT of b67)) was 22% and the Injury ([1]; 280 g ai/ha + COC 1% v/v POST, 3rd of 3 Injury columns, rating date not given) was 25%. It also gave an Injury ([1]; 560 g ai/ha + COC 1% v/v POST, 1st of 3 Injury columns, rating date not given) of 38%, an Injury ([1]; 560 g ai/ha + COC 1% v/v POST, 2nd of 3 Injury columns (agrees with 14 DAT of b67)) of 35% and an Injury ([1]; 560 g ai/ha + COC 1% v/v POST, 3rd of 3 Injury columns, rating date not given) of 27%. The YIELD ([2]; 280 g ai/ha + COC 1% v/v POST) was 8062.6 kg, the YIELD ([2]; 560 g ai/ha + COC 1% v/v POST) was 9227.9 kg and the “Sugar content Raffanose” value ([3]; 280 g ai/ha + COC 1% v/v POST) was 0.64 mg/g dw. For the same compound, the “Sugar content Maltose” value ([3]; 280 g ai/ha + COC 1% v/v POST) was 0.95 mg/g dw, the “Sugar content Fructose” value ([3]; 280 g ai/ha + COC 1% v/v POST) was 1.86 mg/g dw and the “Sugar content Glucose” value ([3]; 280 g ai/ha + COC 1% v/v POST) was 3.22 mg/g dw. The “Sugar content Sucrose” value ([3]; 280 g ai/ha + COC 1% v/v POST) was 12.02 mg/g dw, the “Sugar content Raffanose” value ([3]; 560 g ai/ha + COC 1% v/v POST) was 0.48 mg/g dw and the “Sugar content Maltose” value ([3]; 560 g ai/ha + COC 1% v/v POST) was 0.59 mg/g dw. The “Sugar content Fructose” value ([3]; 560 g ai/ha + COC 1% v/v POST) was 1.39 mg/g dw, the “Sugar content Glucose” value ([3]; 560 g ai/ha + COC 1% v/v POST) was 2.33 mg/g dw and the “Sugar content Sucrose” value ([3]; 560 g ai/ha + COC 1% v/v POST) was 13.30 mg/g dw.

Work on `CC(C)N1C(=O)c2ccccc2NS1(=O)=O` [BENTAZON, bentazon] yielded an Injury ([1]; 1120 g ai/ha + COC 1% v/v POST, 1st of 3 Injury columns, rating date not given) of 5%, an Injury ([1]; 1120 g ai/ha + COC 1% v/v POST, 2nd of 3 Injury columns (agrees with 14 DAT of b67)) of 17% and an Injury ([1]; 1120 g ai/ha + COC 1% v/v POST, 3rd of 3 Injury columns, rating date not given) of 0%. For the same compound, the Injury ([1]; 2240 g ai/ha + COC 1% v/v POST, 1st of 3 Injury columns, rating date not given) was 12%, the Injury ([1]; 2240 g ai/ha + COC 1% v/v POST, 2nd of 3 Injury columns (agrees with 14 DAT of b67)) was 10% and the Injury ([1]; 2240 g ai/ha + COC 1% v/v POST, 3rd of 3 Injury columns, rating date not given) was 2%. The YIELD ([2]; 1120 g ai/ha + COC 1% v/v POST) was 10317 kg, the YIELD ([2]; 2240 g ai/ha + COC 1% v/v POST) was 10565.6 kg and the “Sugar content Raffanose” value ([3]; 1120 g ai/ha + COC 1% v/v POST) was 0.56 mg/g dw. For the same compound, the “Sugar content Maltose” value ([3]; 1120 g ai/ha + COC 1% v/v POST) was 0.96 mg/g dw, the “Sugar content Fructose” value ([3]; 1120 g ai/ha + COC 1% v/v POST) was 1.69 mg/g dw and the “Sugar content Glucose” value ([3]; 1120 g ai/ha + COC 1% v/v POST) was 2.65 mg/g dw. The “Sugar content Sucrose” value ([3]; 1120 g ai/ha + COC 1% v/v POST) was 13.18 mg/g dw, the “Sugar content Raffanose” value ([3]; 2240 g ai/ha + COC 1% v/v POST) was 0.84 mg/g dw and the “Sugar content Maltose” value ([3]; 2240 g ai/ha + COC 1% v/v POST) was 1.26 mg/g dw. For the same compound, the “Sugar content Fructose” value ([3]; 2240 g ai/ha + COC 1% v/v POST) was 1.78 mg/g dw, the “Sugar content Glucose” value ([3]; 2240 g ai/ha + COC 1% v/v POST) was 3.41 mg/g dw and the “Sugar content Sucrose” value ([3]; 2240 g ai/ha + COC 1% v/v POST) was 18.67 mg/g dw.

Reference: patent publication US20110053773A1, “METHODS OF IMPROVING NUTRITIONAL VALUE OF PLANTS” (UNIVERSITY OF TENNESSEE RESEARCH FOUNDATION, priority 2009, published 2011)
